Test results taken from ChEMBL document CHEMBL1138025, “Nocathiacin I analogues: synthesis, in vitro and in vivo biological activity of novel semi-synthetic thiazolyl peptide antibiotics” (Bioorg Med Chem Lett, 2004).
In brackets after ≈: the same amount, converted by molar mass.

Columns and labels:
[1] = system: Streptococcus pneumoniae; assay: In vitro antibacterial activity against penicillin-resistant Streptococcus pneumoniae A28272; type: functional
[2] = Equilibrium water solubility at pH 2.9; type: physicochemical
[3] = system: Enterococcus faecalis; assay: In vitro antibacterial activity against methicillin-sensitive Enterococcus faecalis A20688; type: functional
[4] = system: Mus musculus; assay: In vivo efficacy (PD50) against lethal Staphylococcus aureus systemic infection model in mice; type: functional; details: read-out: PD50
[5] = system: Staphylococcus aureus; assay: In vitro antibacterial activity against methicillin-sensitive Staphylococcus aureus A15090; type: functional
[6] = Equilibrium water solubility at pH 3.3; type: physicochemical
[7] = Equilibrium water solubility at pH 2.7; type: physicochemical
[8] = Equilibrium water solubility at pH 3.2; type: physicochemical
[9] = Equilibrium water solubility at pH 3.8; type: physicochemical
[10] = Equilibrium water solubility at pH 3.9; type: physicochemical
[11] = Equilibrium water solubility at pH 4.0; type: physicochemical
[12] = Equilibrium water solubility at pH 2.8; type: physicochemical
[13] = Equilibrium water solubility at pH 2.6; type: physicochemical
[14] = species on record: Mus musculus; assay: Effective concentration showing antinociception activity was determined by tail flick test in mouse; type: functional, organism-based
[15] = target: Neuronal acetylcholine receptor; alpha4/beta2 (Rattus norvegicus, UniProt P09483+P12390); assay: Inhibition of [3H]- cytisine binding to Nicotinic acetylcholine receptor alpha4-beta2 of rat cortical membranes; type: cell membranes, Membrane
Sequence of Neuronal acetylcholine receptor; alpha4/beta2 (P09483 whole entry): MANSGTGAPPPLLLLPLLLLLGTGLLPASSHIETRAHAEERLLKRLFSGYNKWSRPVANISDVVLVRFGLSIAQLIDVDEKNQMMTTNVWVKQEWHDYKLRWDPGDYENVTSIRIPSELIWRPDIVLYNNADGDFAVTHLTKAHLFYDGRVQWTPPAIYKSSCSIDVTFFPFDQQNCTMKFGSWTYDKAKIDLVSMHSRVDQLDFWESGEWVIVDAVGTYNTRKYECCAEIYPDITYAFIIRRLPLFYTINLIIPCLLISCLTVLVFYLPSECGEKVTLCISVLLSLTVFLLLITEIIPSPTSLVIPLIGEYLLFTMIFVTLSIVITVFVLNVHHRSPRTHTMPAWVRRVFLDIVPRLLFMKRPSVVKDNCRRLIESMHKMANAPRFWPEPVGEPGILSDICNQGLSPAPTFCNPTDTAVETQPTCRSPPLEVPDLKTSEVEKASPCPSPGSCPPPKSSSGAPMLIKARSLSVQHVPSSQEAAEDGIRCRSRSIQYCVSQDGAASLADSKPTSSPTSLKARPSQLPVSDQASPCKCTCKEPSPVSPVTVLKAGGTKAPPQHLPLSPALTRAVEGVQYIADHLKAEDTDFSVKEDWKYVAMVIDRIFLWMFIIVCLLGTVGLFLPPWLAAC
Sequence of Neuronal acetylcholine receptor; alpha4/beta2 (P12390 whole entry): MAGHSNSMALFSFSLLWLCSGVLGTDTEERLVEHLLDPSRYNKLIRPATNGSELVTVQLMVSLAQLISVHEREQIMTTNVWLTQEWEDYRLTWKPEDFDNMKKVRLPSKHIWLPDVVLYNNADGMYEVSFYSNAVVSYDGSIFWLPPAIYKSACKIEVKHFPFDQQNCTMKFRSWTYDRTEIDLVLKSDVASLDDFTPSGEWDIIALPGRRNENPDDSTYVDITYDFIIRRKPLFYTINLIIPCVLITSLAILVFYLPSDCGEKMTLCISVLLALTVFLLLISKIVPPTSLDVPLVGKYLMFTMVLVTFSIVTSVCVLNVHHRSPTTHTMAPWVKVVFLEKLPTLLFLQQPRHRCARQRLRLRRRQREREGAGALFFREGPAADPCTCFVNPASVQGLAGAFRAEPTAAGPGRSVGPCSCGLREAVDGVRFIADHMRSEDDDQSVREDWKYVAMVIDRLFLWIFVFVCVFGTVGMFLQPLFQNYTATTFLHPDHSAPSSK

[16] = Equilibrium water solubility at pH 3.5; type: physicochemical

| SMILES | MIC [1] | MIC [3] | ED50 [4] | MIC [5] | further results |
| --- | --- | --- | --- | --- | --- |
| CO/C(C)=C1/NC(=O)[C@H]([C@@H](C)O)NC(=O)c2csc(n2)-c2cc(O)c(-c3nc(C(=O)NC(CN(C)CCN(C)C)C(N)=O)cs3)nc2-c2csc(n2)[C@@H]2COC(=O)c3c4c5c(cccc5n3O)COC(=O)[C@@H](O[C@H]3C[C@](C)(O)[C@H](N(C)C)[C@H](C)O3)[C@@H](OC4)[C@H](NC(=O)c3csc1n3)c1nc(cs1)C(=O)N2 (stereo partly specified) | 0.007 µg/mL (≈ 0.00455 µM) | 0.5 µg/mL (≈ 0.325 µM) | 3.3 mg/kg | 0.06 µg/mL (≈ 0.039 µM) | solubility thermodynamic [2]: > 10000 µg/mL |
| CO/C(C)=C1/NC(=O)[C@H]([C@@H](C)O)NC(=O)c2csc(n2)-c2cc(O)c(-c3nc(C(=O)NC(CNCCOCCOCCO)C(N)=O)cs3)nc2-c2csc(n2)[C@@H]2COC(=O)c3c4c5c(cccc5n3O)COC(=O)[C@@H](O[C@H]3C[C@](C)(O)[C@H](N(C)C)[C@H](C)O3)[C@@H](OC4)[C@H](NC(=O)c3csc1n3)c1nc(cs1)C(=O)N2 (stereo partly specified) | 0.06 µg/mL (≈ 0.0378 µM) | 0.5 µg/mL (≈ 0.315 µM) | 4.6 mg/kg | 0.25 µg/mL (≈ 0.158 µM) | solubility thermodynamic [6]: > 3100 µg/mL |
| CO/C(C)=C1/NC(=O)[C@H]([C@@H](C)O)NC(=O)c2csc(n2)-c2cc(O)c(-c3nc(C(=O)NC(CN4CCN(C(C)=O)CC4)C(N)=O)cs3)nc2-c2csc(n2)[C@@H]2COC(=O)c3c4c5c(cccc5n3O)COC(=O)[C@@H](O[C@H]3C[C@](C)(O)[C@H](N(C)C)[C@H](C)O3)[C@@H](OC4)[C@H](NC(=O)c3csc1n3)c1nc(cs1)C(=O)N2 (stereo partly specified) | 0.03 µg/mL (≈ 0.0192 µM) | 2 µg/mL (≈ 1.28 µM) | 5 mg/kg | 0.5 µg/mL (≈ 0.319 µM) | solubility thermodynamic [7]: > 2400 µg/mL |
| CO/C(C)=C1/NC(=O)C([C@@H](C)O)NC(=O)c2csc(n2)-c2cc(O)c(-c3nc(C(=O)NC(CNCCCn4ccnc4)C(N)=O)cs3)nc2-c2csc(n2)[C@@H]2COC(=O)c3c4c5c(cccc5n3O)COC(=O)[C@@H](O[C@H]3C[C@](C)(O)[C@H](N(C)C)[C@H](C)O3)[C@@H](OC4)[C@H](NC(=O)c3csc1n3)c1nc(cs1)C(=O)N2 (stereo partly specified) | 0.06 µg/mL (≈ 0.0384 µM) | 1 µg/mL (≈ 0.64 µM) | 10 mg/kg | 0.5 µg/mL (≈ 0.32 µM) | solubility thermodynamic [8]: > 10000 µg/mL |
| CO/C(C)=C1/NC(=O)[C@H]([C@@H](C)O)NC(=O)c2csc(n2)-c2cc(O)c(-c3nc(C(=O)NC(CN4CCN(CC(=O)O)CC4)C(N)=O)cs3)nc2-c2csc(n2)[C@@H]2COC(=O)c3c4c5c(cccc5n3O)COC(=O)[C@@H](O[C@H]3C[C@](C)(O)[C@H](N(C)C)[C@H](C)O3)[C@@H](OC4)[C@H](NC(=O)c3csc1n3)c1nc(cs1)C(=O)N2 (stereo partly specified) | 0.03 µg/mL (≈ 0.019 µM) | 1 µg/mL (≈ 0.632 µM) | > 10 mg/kg | 1 µg/mL (≈ 0.632 µM) | solubility thermodynamic [6]: > 2600 µg/mL |
| CO/C(C)=C1/NC(=O)[C@H]([C@@H](C)O)NC(=O)c2csc(n2)-c2cc(O)c(-c3nc(C(=O)NC(CNCCOCCOCCOCCN)C(N)=O)cs3)nc2-c2csc(n2)[C@@H]2COC(=O)c3c4c5c(cccc5n3O)COC(=O)[C@@H](O[C@H]3C[C@](C)(O)[C@H](N(C)C)[C@H](C)O3)[C@@H](OC4)[C@H](NC(=O)c3csc1n3)c1nc(cs1)C(=O)N2 (stereo partly specified) | 0.25 µg/mL (≈ 0.153 µM) | 1 µg/mL (≈ 0.614 µM) | > 10 mg/kg | 1 µg/mL (≈ 0.614 µM) | solubility thermodynamic [8]: > 2800 µg/mL |
| CO/C(C)=C1/NC(=O)[C@H]([C@@H](C)O)NC(=O)c2csc(n2)-c2cc(O)c(-c3nc(C(=O)NC(CN(C)C)C(N)=O)cs3)nc2-c2csc(n2)[C@@H]2COC(=O)c3c4c5c(cccc5n3O)COC(=O)[C@@H](O[C@H]3C[C@](C)(O)[C@H](N(C)C)[C@H](C)O3)[C@@H](OC4)[C@H](NC(=O)c3csc1n3)c1nc(cs1)C(=O)N2 (stereo partly specified) | 0.03 µg/mL (≈ 0.0202 µM) | 0.12 µg/mL (≈ 0.0809 µM) | < 0.62 mg/kg | 0.06 µg/mL (≈ 0.0405 µM) | solubility thermodynamic [6]: > 10000 µg/mL |
| CO/C(C)=C1/NC(=O)[C@H]([C@@H](C)O)NC(=O)c2csc(n2)-c2cc(O)c(-c3nc(C(=O)NC(CN4CCC(O)CC4)C(N)=O)cs3)nc2-c2csc(n2)[C@@H]2COC(=O)c3c4c5c(cccc5n3O)COC(=O)[C@@H](O[C@H]3C[C@](C)(O)[C@H](N(C)C)[C@H](C)O3)[C@@H](OC4)[C@H](NC(=O)c3csc1n3)c1nc(cs1)C(=O)N2 (stereo partly specified) | 0.007 µg/mL (≈ 0.00455 µM) | 0.25 µg/mL (≈ 0.162 µM) | 2.1 mg/kg | 0.06 µg/mL (≈ 0.039 µM) | solubility thermodynamic [9]: > 2700 µg/mL |
| CO/C(C)=C1/NC(=O)[C@H]([C@@H](C)O)NC(=O)c2csc(n2)-c2cc(O)c(-c3nc(C(=O)NC(CN(C)CCCn4ccnc4)C(N)=O)cs3)nc2-c2csc(n2)[C@@H]2COC(=O)c3c4c5c(cccc5n3O)COC(=O)[C@@H](O[C@H]3C[C@](C)(O)[C@H](N(C)C)[C@H](C)O3)[C@@H](OC4)[C@H](NC(=O)c3csc1n3)c1nc(cs1)C(=O)N2 (stereo partly specified) | 0.01 µg/mL (≈ 0.00634 µM) | 0.12 µg/mL (≈ 0.0761 µM) | 5 mg/kg | 0.12 µg/mL (≈ 0.0761 µM) | solubility thermodynamic [10]: > 10600 µg/mL |
| C=C(NC(=O)c1csc(-c2nc3c(cc2O)-c2nc(cs2)C(=O)N[C@@H]([C@@H](C)O)C(=O)N/C(=C(\C)OC)c2nc(cs2)C(=O)N[C@@H]2c4nc(cs4)C(=O)N[C@@H](COC(=O)c4c5c6c(cccc6n4O)COC(=O)C(O[C@H]4C[C@](C)(O)[C@H](N(C)C)[C@H](C)O4)[C@H]2OC5)c2nc-3cs2)n1)C(N)=O (stereo partly specified) | 0.001 µg/mL (≈ 0.000696 µM) | 0.03 µg/mL (≈ 0.0209 µM) | 0.8 mg/kg | 0.007 µg/mL (≈ 0.00487 µM) | solubility thermodynamic [11]: 340 µg/mL (≈ 237 µM) |
| CO/C(C)=C1/NC(=O)[C@H]([C@@H](C)O)NC(=O)c2csc(n2)-c2cc(O)c(-c3nc(C(=O)NC(CNCCN4CCN(C)CC4)C(N)=O)cs3)nc2-c2csc(n2)[C@@H]2COC(=O)c3c4c5c(cccc5n3O)COC(=O)[C@@H](O[C@H]3C[C@](C)(O)[C@H](N(C)C)[C@H](C)O3)[C@@H](OC4)[C@H](NC(=O)c3csc1n3)c1nc(cs1)C(=O)N2 (stereo partly specified) | 0.01 µg/mL (≈ 0.00633 µM) | 4 µg/mL (≈ 2.53 µM) | > 10 mg/kg | 0.25 µg/mL (≈ 0.158 µM) | solubility thermodynamic [12]: > 2900 µg/mL |
| CNCCNCC(NC(=O)c1csc(-c2nc3c(cc2O)-c2nc(cs2)C(=O)N[C@@H]([C@@H](C)O)C(=O)N/C(=C(\C)OC)c2nc(cs2)C(=O)N[C@@H]2c4nc(cs4)C(=O)N[C@@H](COC(=O)c4c5c6c(cccc6n4O)COC(=O)[C@@H](O[C@H]4C[C@](C)(O)[C@H](N(C)C)[C@H](C)O4)[C@H]2OC5)c2nc-3cs2)n1)C(N)=O (stereo partly specified) | 0.03 µg/mL (≈ 0.0198 µM) | 0.5 µg/mL (≈ 0.331 µM) | – | 0.25 µg/mL (≈ 0.165 µM) | solubility thermodynamic [13]: > 2500 µg/mL |
| Clc1ccc(C2CC3CCC2CN3)cn1 (stereo unspecified) | – | – | – | – | EC50 [14]: 1.4 mg/kg; Ki [15]: 0.34 nM |
| CNCC(NC(=O)c1csc(-c2nc3c(cc2O)-c2nc(cs2)C(=O)N[C@@H]([C@@H](C)O)C(=O)N/C(=C(\C)OC)c2nc(cs2)C(=O)N[C@@H]2c4nc(cs4)C(=O)N[C@@H](COC(=O)c4c5c6c(cccc6n4O)COC(=O)[C@@H](O[C@H]4C[C@](C)(O)[C@H](N(C)C)[C@H](C)O4)[C@H]2OC5)c2nc-3cs2)n1)C(N)=O (stereo partly specified) | 0.001 µg/mL (≈ 0.000681 µM) | 8 µg/mL (≈ 5.45 µM) | 1.6 mg/kg | 2 µg/mL (≈ 1.36 µM) | solubility thermodynamic [2]: > 3500 µg/mL |
| CO/C(C)=C1/NC(=O)[C@H]([C@@H](C)O)NC(=O)c2csc(n2)-c2cc(O)c(-c3nc(C(=O)NC(CN(CCO)CCO)C(N)=O)cs3)nc2-c2csc(n2)[C@@H]2COC(=O)c3c4c5c(cccc5n3O)COC(=O)[C@@H](O[C@H]3C[C@](C)(O)[C@H](N(C)C)[C@H](C)O3)[C@@H](OC4)[C@H](NC(=O)c3csc1n3)c1nc(cs1)C(=O)N2 (stereo partly specified) | 0.01 µg/mL (≈ 0.00648 µM) | 0.25 µg/mL (≈ 0.162 µM) | 5 mg/kg | 0.12 µg/mL (≈ 0.0778 µM) | solubility thermodynamic [2]: > 1700 µg/mL |
| COCCOCCOCCOCCN1CCN(CC(NC(=O)c2csc(-c3nc4c(cc3O)-c3nc(cs3)C(=O)N[C@@H]([C@@H](C)O)C(=O)N/C(=C(\C)OC)c3nc(cs3)C(=O)N[C@@H]3c5nc(cs5)C(=O)N[C@@H](COC(=O)c5c6c7c(cccc7n5O)COC(=O)[C@@H](O[C@H]5C[C@](C)(O)[C@H](N(C)C)[C@H](C)O5)[C@H]3OC6)c3nc-4cs3)n2)C(N)=O)CC1 (stereo partly specified) | 0.25 µg/mL (≈ 0.146 µM) | 4 µg/mL (≈ 2.33 µM) | 1.5 mg/kg | 0.5 µg/mL (≈ 0.292 µM) | solubility thermodynamic [16]: > 1500 µg/mL |
| CO/C(C)=C1/NC(=O)[C@H]([C@@H](C)O)NC(=O)c2csc(n2)-c2cc(O)c(-c3nc(C(=O)NC(CN(C)CCC(=O)Nc4ccncc4)C(N)=O)cs3)nc2-c2csc(n2)[C@@H]2COC(=O)c3c4c5c(cccc5n3O)COC(=O)[C@@H](O[C@H]3C[C@](C)(O)[C@H](N(C)C)[C@H](C)O3)[C@@H](OC4)[C@H](NC(=O)c3csc1n3)c1nc(cs1)C(=O)N2 (stereo partly specified) | 0.03 µg/mL (≈ 0.0186 µM) | 0.5 µg/mL (≈ 0.309 µM) | 8.7 mg/kg | 0.5 µg/mL (≈ 0.309 µM) | solubility thermodynamic [12]: > 3000 µg/mL |
